Assay results as given in the supplement of paper PMC4977894.
± gives the standard deviation of the averaged measurements.

How the values were obtained:
[1] = system: Homo sapiens (human subject panel, olfactory perception); assay: perceived odor familiarity rating (rating 0-100); higher = more familiar
Summary of the method: (§1)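 Stimuli were molecules diluted in paraffin oil at high and low concentrations, with 1 mL of each sniffed in randomized order across ten visits of 100 stimuli. Participants were 55 healthy humans aged 18–50, excluding the six lowest performers. Subjects who smelled a stimulus moved a computerized slider away from its starting point of 50, and positions were rescaled to 0–100. Familiarity, intensity and pleasantness are each reported as an average over subjects.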

[2] = system: Homo sapiens (human subject panel, olfactory perception); assay: perceived odor pleasantness rating (rating 0-100); higher = more pleasant
Summary of the method: as §1

[3] = system: Homo sapiens (human subject panel, olfactory perception); assay: perceived odor intensity rating (rating 0-100); higher = stronger perceived smell
Summary of the method: as §1

[4] = odor dilution in paraffin oil: 1/1,000
[5] = odor dilution in paraffin oil: 1/100,000
[6] = odor dilution in paraffin oil: 1/10
[7] = odor dilution in paraffin oil: 1/10,000,000

| SMILES | perceived odor familiarity rating [1, 4] | perceived odor familiarity rating [1, 5] | perceived odor pleasantness rating [2, 4] | perceived odor pleasantness rating [2, 5] | perceived odor intensity rating [3, 4] | perceived odor intensity rating [3, 5] | perceived odor familiarity rating [1, 6] | perceived odor pleasantness rating [2, 6] | perceived odor intensity rating [3, 6] | perceived odor familiarity rating [1, 7] | perceived odor pleasantness rating [2, 7] | perceived odor intensity rating [3, 7] |
| --- | --- | --- | --- | --- | --- | --- | --- | --- | --- | --- | --- | --- |
| CCCCCOC(=O)CCC [Amyl butyrate] | 51.7 ± 32 | 32.9 ± 32 | 55.8 ± 28 | 47.7 ± 30 | 59.2 ± 26 | 20.8 ± 25 | – | – | – | – | – | – |
| COc1ccccc1 [anisole] | 45 ± 34 | 35.4 ± 33 | 29.3 ± 26 | 50.2 ± 26 | 75.3 ± 24 | 30.9 ± 30 | – | – | – | – | – | – |
| CCCCOC(=O)[C@H](C)O [Butyl (S)-(-)-lactate] | 50.4 ± 32 | 39.5 ± 25 | 50.2 ± 28 | 48.8 ± 23 | 55.5 ± 29 | 33.6 ± 34 | – | – | – | – | – | – |
| CCCCCCCCCCO [decanol] | 49.6 ± 33 | 39.4 ± 32 | 38.6 ± 28 | 46.8 ± 25 | 66 ± 27 | 29.1 ± 24 | – | – | – | – | – | – |
| CCCCCC(CC)OC(C)=O (centres undefined) [3-Octyl Acetate] | 48.9 ± 29 | – | 59 ± 26 | – | 39.7 ± 31 | – | 51.6 ± 32 | 44.9 ± 31 | 83.7 ± 17 | – | – | – |
| C=CCCCCCCCCC(=O)OCCCC [Butyl 10-undecenoate] | 44.4 ± 32 | – | 42.2 ± 19 | – | 31.9 ± 33 | – | 50 ± 30 | 35.1 ± 27 | 58.1 ± 30 | – | – | – |
| CCCCC/C=C\CCCO [cis-4-Decen-1-ol] | 49.8 ± 29 | 40.3 ± 32 | 49.2 ± 25 | 53.6 ± 27 | 65.4 ± 26 | 29.2 ± 32 | – | – | – | – | – | – |
| O=C(Cc1ccccc1)OCc1ccccc1 [Benzyl phenylacetate] | 49.8 ± 32 | 37.3 ± 31 | 31 ± 26 | 47 ± 20 | 54.4 ± 30 | 37.4 ± 35 | – | – | – | – | – | – |
| O=C(O)/C=C/c1ccccc1 [trans-Cinnamic acid] | 46.5 ± 32 | – | 28.4 ± 28 | – | 59.5 ± 30 | – | 51.5 ± 31 | 52.7 ± 30 | 72.3 ± 23 | – | – | – |
| CC1=CC(=O)CC(C)(C)C1 [Isophorone] | 50.2 ± 35 | 40.4 ± 28 | 51.5 ± 25 | 54.3 ± 24 | 60.1 ± 25 | 21.6 ± 24 | – | – | – | – | – | – |
| c1ccncc1 [pyridine] | – | 33.7 ± 29 | – | 46.8 ± 24 | – | 21.5 ± 23 | – | – | – | 28 ± 28 | 54.2 ± 25 | 13 ± 21 |
| CCCCCCC(=O)OC [Methyl heptanoate] | 48.9 ± 33 | 39.5 ± 30 | 58.8 ± 25 | 53 ± 24 | 52.9 ± 30 | 21.7 ± 28 | – | – | – | – | – | – |
| CCCCCCCCCCCCCCCCCC(=O)OCC [Ethyl stearate] | 33.1 ± 24 | – | 43.4 ± 15 | – | 17 ± 17 | – | 38.3 ± 34 | 45.7 ± 25 | 46.8 ± 33 | – | – | – |
| C/C=C/c1ccc(OC)c(OC)c1 [methyl isoeugenol] | 48.2 ± 31 | 30.1 ± 24 | 58.8 ± 26 | 39.5 ± 23 | 37.9 ± 31 | 25.4 ± 35 | – | – | – | – | – | – |
| CCCC(C)C(=O)OCC (centres undefined) [Ethyl 2-methylpentanoate (replicate)] | 59.6 ± 31 | 52 ± 27 | 72.2 ± 18 | 64.9 ± 20 | 52.1 ± 29 | 50.5 ± 29 | – | – | – | – | – | – |
| CCCCC1OC(=O)CC1C (centres undefined) [Whiskey lactone] | 62.2 ± 30 | 50.6 ± 33 | 69.7 ± 22 | 60.2 ± 27 | 71.3 ± 23 | 51.8 ± 29 | – | – | – | – | – | – |
| O=Cc1ccc(O)cc1 [4-Hydroxybenzaldehyde] | 39.1 ± 31 | – | 51.8 ± 23 | – | 37.6 ± 27 | – | 39.5 ± 25 | 49.2 ± 24 | 51.6 ± 29 | – | – | – |

| SMILES | perceived odor familiarity rating [1, 4] | perceived odor familiarity rating [1, 5] | perceived odor pleasantness rating [2, 4] | perceived odor pleasantness rating [2, 5] | perceived odor intensity rating [3, 4] | perceived odor intensity rating [3, 5] | perceived odor familiarity rating [1, 6] | perceived odor pleasantness rating [2, 6] | perceived odor intensity rating [3, 6] | perceived odor familiarity rating [1, 7] | perceived odor pleasantness rating [2, 7] | perceived odor intensity rating [3, 7] |
| --- | --- | --- | --- | --- | --- | --- | --- | --- | --- | --- | --- | --- |
| CCSCC [Diethyl sulfide] | – | 37.5 ± 27 | – | 24.2 ± 22 | – | 62.5 ± 32 | – | – | – | 42 ± 27 | 43.8 ± 23 | 19.7 ± 27 |
| O=C(O)c1ccccc1 [Benzoic acid] | 34.4 ± 25 | 38.7 ± 30 | 34.9 ± 22 | 55.5 ± 25 | 30.3 ± 27 | 20.2 ± 24 | – | – | – | – | – | – |
| CCc1cnccn1 [2-ethyl pyrazine] | 55.8 ± 34 | 34.8 ± 27 | 37.2 ± 30 | 47 ± 21 | 80 ± 19 | 31.4 ± 25 | – | – | – | – | – | – |
| CSCCCN=C=S [3-(Methylthio)propyl isothiocyanate] | 49.7 ± 32 | 47.6 ± 30 | 25.2 ± 26 | 34.3 ± 27 | 82.7 ± 21 | 62.5 ± 29 | – | – | – | – | – | – |
| CC[C@H](C)O [(S)-( + )-2-butanol] | 33.1 ± 30 | 40.9 ± 30 | 50.2 ± 22 | 50.7 ± 21 | 16.4 ± 22 | 24.7 ± 27 | – | – | – | – | – | – |
| CC1CCCC(=O)C1 (centres undefined) [3-Methylcyclohexanone] | 53.2 ± 34 | 34 ± 27 | 45.5 ± 30 | 41.7 ± 22 | 71 ± 28 | 39.3 ± 34 | – | – | – | – | – | – |
| CCCCCO [pentanol] | 46 ± 30 | 36.6 ± 28 | 23.9 ± 23 | 41.9 ± 26 | 68.4 ± 28 | 31.2 ± 32 | – | – | – | – | – | – |
| SC1CCCC1 [Cyclopentanethiol] | – | 55.4 ± 34 | – | 16.5 ± 22 | – | 92.4 ± 10 | – | – | – | 57.8 ± 33 | 24 ± 23 | 78.1 ± 21 |
| O=C1CCCCCN1 [epsilon-Caprolactam] | 39.4 ± 35 | – | 40.9 ± 26 | – | 31.3 ± 33 | – | 31.2 ± 28 | 46 ± 25 | 30.6 ± 30 | – | – | – |
| NC(Cc1ccccc1)C(=O)O (racemic) [DL-Phenylalanine (replicate)] | 39.2 ± 26 | – | 50.4 ± 23 | – | 39.2 ± 29 | – | 48.2 ± 29 | 44.6 ± 25 | 66.3 ± 24 | – | – | – |
| CC(=O)c1cc(C)oc1C [3-Acetyl-2,5-dimethylfuran] | – | 44.9 ± 27 | – | 31.6 ± 22 | – | 65.6 ± 24 | – | – | – | 40.2 ± 32 | 48.9 ± 22 | 15.4 ± 22 |
| CCC1OC(=O)C(O)=C1C (centres undefined) [5-Ethyl-3-hydroxy-4-methyl-2(5H)-furanone] | – | 44.9 ± 29 | – | 54.4 ± 22 | – | 36.6 ± 31 | – | – | – | 59.7 ± 34 | 64 ± 22 | 48.1 ± 32 |
| CCC(=O)O [propionic acid (replicate)] | – | 37.3 ± 30 | – | 38.7 ± 20 | – | 38.6 ± 32 | – | – | – | 44.1 ± 30 | 36.7 ± 25 | 7.72 ± 8.4 |
| C=CCCCCCC [1-Octene] | 42.9 ± 28 | 45.6 ± 31 | 39.1 ± 24 | 48 ± 26 | 39.7 ± 29 | 33.6 ± 30 | – | – | – | – | – | – |
| CC(C)COC(=O)Cc1ccccc1 [Isobutyl phenylacetate] | 49 ± 31 | 33.7 ± 29 | 45.5 ± 30 | 54.3 ± 24 | 52 ± 29 | 15.7 ± 21 | – | – | – | – | – | – |
| CC/C=C\CCOC(=O)C(C)C [cis-3-Hexenyl isobutyrate] | 55.4 ± 31 | 40.1 ± 30 | 47.1 ± 29 | 40.8 ± 22 | 73.3 ± 25 | 30 ± 28 | – | – | – | – | – | – |
| CCOc1nccs1 [2-Ethoxythiazole] | 45.2 ± 30 | 42.5 ± 28 | 24.3 ± 23 | 37.6 ± 25 | 79.9 ± 19 | 52.7 ± 30 | – | – | – | – | – | – |
